From PMC10794144, “A novel antibiotic class targeting the lipopolysaccharide transporter” (Nature, 2024)
In brackets after ≈: the same amount, converted by molar mass. Read-outs that look alike come from different tables or passages of the source.

Test system: A. baumannii
Assay: microbe, parasite or virus in culture
Conditions: Acinetobacter baumannii, 100%
Outline: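 Standard broth microdilution per CLSI; diluted 0.5 McFarland inocula in cation-adjusted Mueller-Hinton broth; visual or OD600 endpoint.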

## C[C@@H](O)[C@H]1C(=O)N2C(C(=O)O)=C(S[C@@H]3CN[C@H](C(=O)N(C)C)C3)[C@H](C)[C@H]12 [meropenem, reference compound]
read-out: MIC 100%, ROB08704, Study LGC294355
  MIC: 64 µg/mL (≈ 167 µM)
read-out: MIC 100%, ROB08704, Study LGC295147
  MIC: 64 µg/mL (≈ 167 µM)
read-out: MIC 100%, ROB08704, Study LGC296813
  MIC: 32 µg/mL (≈ 83.4 µM)
read-out: MIC 100%, ROB08704, Study LGC299544
  MIC: 32 µg/mL (≈ 83.4 µM)
read-out: MIC 100%, ROB08704, Study LGC301026
  MIC: 32 µg/mL (≈ 83.4 µM)
read-out: MIC 100%, ROB08704, Study LGC308175
  MIC: 64 µg/mL (≈ 167 µM)
read-out: MIC 100%, ROB08704, Study ROC003
  MIC: 64 µg/mL (≈ 167 µM)
read-out: MIC 100%, ROB08704, Study ROC004
  MIC: 64 µg/mL (≈ 167 µM)
read-out: MIC 100%, ROB08704, Study ROC005
  MIC: 64 µg/mL (≈ 167 µM)
read-out: MIC 100%, ROB08704, Study ROC006
  MIC: 64 µg/mL (≈ 167 µM)
read-out: MIC 100%, ROB08704, Study ROC007
  MIC: 64 µg/mL (≈ 167 µM)
read-out: MIC 100%, ROB08704, Study ROC008
  MIC: 64 µg/mL (≈ 167 µM)
read-out: MIC 100%, ROB08704, Study ROC009
  MIC: 32 µg/mL (≈ 83.4 µM)
read-out: MIC 100%, ROB08704, Study ROC010
  MIC: 64 µg/mL (≈ 167 µM)
read-out: MIC 100%, ROB08704, Study ROC012
  MIC: 32 µg/mL (≈ 83.4 µM)
read-out: MIC 100%, ROB08704, Study ROC013
  MIC: 64 µg/mL (≈ 167 µM)
read-out: MIC 100%, ROB08705, Study LGC277937
  MIC: 64 µg/mL (≈ 167 µM)
read-out: MIC 100%, ROB08705, Study LGC279800
  MIC: 16 µg/mL (≈ 41.7 µM)
read-out: MIC 100%, ROB08705, Study LGC281440
  MIC: 32 µg/mL (≈ 83.4 µM)
read-out: MIC 100%, ROB08705, Study LGC282160
  MIC: 32 µg/mL (≈ 83.4 µM)
read-out: MIC 100%, ROB08705, Study LGC282623
  MIC: 32 µg/mL (≈ 83.4 µM)
read-out: MIC 100%, ROB08705, Study LGC283932
  MIC: 32 µg/mL (≈ 83.4 µM)
read-out: MIC 100%, ROB08705, Study LGC284200
  MIC: 32 µg/mL (≈ 83.4 µM)
read-out: MIC 100%, ROB08705, Study LGC284879
  MIC: 32 µg/mL (≈ 83.4 µM)
read-out: MIC 100%, ROB08705, Study LGC285582
  MIC: 32 µg/mL (≈ 83.4 µM)
read-out: MIC 100%, ROB08705, Study LGC286210
  MIC: 32 µg/mL (≈ 83.4 µM)
read-out: MIC 100%, ROB08705, Study LGC293598
  MIC: 32 µg/mL (≈ 83.4 µM)
read-out: MIC 100%, ROB08705, Study LGC294355
  MIC: 32 µg/mL (≈ 83.4 µM)
read-out: MIC 100%, ROB08705, Study LGC295147
  MIC: 32 µg/mL (≈ 83.4 µM)
read-out: MIC 100%, ROB08705, Study LGC296813
  MIC: 32 µg/mL (≈ 83.4 µM)
read-out: MIC 100%, ROB08705, Study LGC299544
  MIC: 32 µg/mL (≈ 83.4 µM)
read-out: MIC 100%, ROB08705, Study LGC301026
  MIC: 64 µg/mL (≈ 167 µM)
read-out: MIC 100%, ROB08705, Study LGC308175
  MIC: 32 µg/mL (≈ 83.4 µM)
read-out: MIC 100%, ROB08705, Study ROC003
  MIC: 32 µg/mL (≈ 83.4 µM)
read-out: MIC 100%, ROB08705, Study ROC004
  MIC: 64 µg/mL (≈ 167 µM)
read-out: MIC 100%, ROB08705, Study ROC005
  MIC: 64 µg/mL (≈ 167 µM)
read-out: MIC 100%, ROB08705, Study ROC006
  MIC: 64 µg/mL (≈ 167 µM)
read-out: MIC 100%, ROB08705, Study ROC007
  MIC: 32 µg/mL (≈ 83.4 µM)
read-out: MIC 100%, ROB08705, Study ROC008
  MIC: > 64 µg/mL
read-out: MIC 100%, ROB08705, Study ROC009
  MIC: 32 µg/mL (≈ 83.4 µM)
read-out: MIC 100%, ROB08705, Study ROC010
  MIC: 64 µg/mL (≈ 167 µM)
read-out: MIC 100%, ROB08705, Study ROC012
  MIC: 32 µg/mL (≈ 83.4 µM)
read-out: MIC 100%, ROB08705, Study ROC013
  MIC: 32 µg/mL (≈ 83.4 µM)
read-out: MIC 100%, ROB08706, Study LGC277937
  MIC: 64 µg/mL (≈ 167 µM)
read-out: MIC 100%, ROB08706, Study LGC279800
  MIC: > 64 µg/mL
read-out: MIC 100%, ROB08706, Study LGC281440
  MIC: 32 µg/mL (≈ 83.4 µM)
read-out: MIC 100%, ROB08706, Study LGC282160
  MIC: 64 µg/mL (≈ 167 µM)
read-out: MIC 100%, ROB08706, Study LGC282623
  MIC: 64 µg/mL (≈ 167 µM)
read-out: MIC 100%, ROB08706, Study LGC283932
  MIC: 64 µg/mL (≈ 167 µM)
read-out: MIC 100%, ROB08706, Study LGC284200
  MIC: 32 µg/mL (≈ 83.4 µM)
read-out: MIC 100%, ROB08706, Study LGC284879
  MIC: 64 µg/mL (≈ 167 µM)
read-out: MIC 100%, ROB08706, Study LGC285582
  MIC: 64 µg/mL (≈ 167 µM)
read-out: MIC 100%, ROB08706, Study LGC286210
  MIC: 64 µg/mL (≈ 167 µM)
read-out: MIC 100%, ROB08706, Study LGC293598
  MIC: 64 µg/mL (≈ 167 µM)
read-out: MIC 100%, ROB08706, Study LGC294355
  MIC: 64 µg/mL (≈ 167 µM)
read-out: MIC 100%, ROB08706, Study LGC295147
  MIC: 64 µg/mL (≈ 167 µM)
read-out: MIC 100%, ROB08706, Study LGC296813
  MIC: 64 µg/mL (≈ 167 µM)
read-out: MIC 100%, ROB08706, Study LGC299544
  MIC: 64 µg/mL (≈ 167 µM)
read-out: MIC 100%, ROB08706, Study LGC301026
  MIC: 64 µg/mL (≈ 167 µM)
read-out: MIC 100%, ROB08706, Study LGC308175
  MIC: 64 µg/mL (≈ 167 µM)
read-out: MIC 100%, ROB08706, Study ROC004
  MIC: 64 µg/mL (≈ 167 µM)
read-out: MIC 100%, ROB08706, Study ROC005
  MIC: 64 µg/mL (≈ 167 µM)
read-out: MIC 100%, ROB08706, Study ROC006
  MIC: > 64 µg/mL
read-out: MIC 100%, ROB08706, Study ROC007
  MIC: 64 µg/mL (≈ 167 µM)
read-out: MIC 100%, ROB08706, Study ROC008
  MIC: 64 µg/mL (≈ 167 µM)
read-out: MIC 100%, ROB08706, Study ROC009
  MIC: 64 µg/mL (≈ 167 µM)
read-out: MIC 100%, ROB08706, Study ROC010
  MIC: 32 µg/mL (≈ 83.4 µM)
read-out: MIC 100%, ROB08706, Study ROC012
  MIC: 64 µg/mL (≈ 167 µM)
read-out: MIC 100%, ROB08706, Study ROC013
  MIC: 64 µg/mL (≈ 167 µM)
read-out: MIC 100%, ROB08707, Study LGC277937
  MIC: 32 µg/mL (≈ 83.4 µM)
read-out: MIC 100%, ROB08707, Study LGC279800
  MIC: 32 µg/mL (≈ 83.4 µM)
read-out: MIC 100%, ROB08707, Study LGC281440
  MIC: 32 µg/mL (≈ 83.4 µM)
read-out: MIC 100%, ROB08707, Study LGC282160
  MIC: 32 µg/mL (≈ 83.4 µM)
read-out: MIC 100%, ROB08707, Study LGC282623
  MIC: 64 µg/mL (≈ 167 µM)
read-out: MIC 100%, ROB08707, Study LGC283932
  MIC: 64 µg/mL (≈ 167 µM)
read-out: MIC 100%, ROB08707, Study LGC284200
  MIC: 32 µg/mL (≈ 83.4 µM)
read-out: MIC 100%, ROB08707, Study LGC284879
  MIC: 64 µg/mL (≈ 167 µM)
read-out: MIC 100%, ROB08707, Study LGC285582
  MIC: 32 µg/mL (≈ 83.4 µM)
read-out: MIC 100%, ROB08707, Study LGC286210
  MIC: 32 µg/mL (≈ 83.4 µM)
read-out: MIC 100%, ROB08707, Study LGC293598
  MIC: 32 µg/mL (≈ 83.4 µM)
read-out: MIC 100%, ROB08707, Study LGC294355
  MIC: 32 µg/mL (≈ 83.4 µM)
read-out: MIC 100%, ROB08707, Study LGC295147
  MIC: 64 µg/mL (≈ 167 µM)
read-out: MIC 100%, ROB08707, Study LGC296813
  MIC: 32 µg/mL (≈ 83.4 µM)
read-out: MIC 100%, ROB08707, Study LGC299544
  MIC: 64 µg/mL (≈ 167 µM)
read-out: MIC 100%, ROB08707, Study LGC301026
  MIC: 32 µg/mL (≈ 83.4 µM)
read-out: MIC 100%, ROB08707, Study LGC308175
  MIC: 32 µg/mL (≈ 83.4 µM)
